Reference: patent US20250115595A1, “INHIBITORS OF HYPOXIA-INDUCIBLE FACTORS” (The Johns Hopkins University, priority 2021, published 2025)

Tested on: cytokine mRNAs
Test: RT-qPCR array of mouse cytokines and chemokines in Hepa1-6 tumors
Type: in vivo
Conditions: Hepa1-6 tumors, vs vehicle
Description: Total RNA from Hepa1-6 tumors was analyzed using the RT2 Profiler PCR Array of Mouse Cytokines and Chemokines (Qiagen, catalog number 330231 PAMM-150ZA) according to the manufacturer's instructions.

## Brc1ccc2c(-c3csc(-c4c[nH]c5c(Br)cccc45)n3)c[nH]c2c1 [Compound 32-134D, 4-(6-bromo-1H-indol-3-yl)-2-(7-bromo-1H-indol-3-yl)thiazole]
  Adipoq mRNA Fold Change Test Group/Control Group: 0.43
  Adipoq mRNA Fold Up- or Down-Regulation Test Group/Control Group: −2.31
  Adipoq mRNA X axis (Log2(fold change)): −1.21
  Bmp2 mRNA Fold Change Test Group/Control Group: 0.51
  Bmp2 mRNA Fold Up- or Down-Regulation Test Group/Control Group: −1.95
  Bmp2 mRNA X axis (Log2(fold change)): −0.96
  Bmp4 mRNA Fold Change Test Group/Control Group: 0.64
  Bmp4 mRNA Fold Up- or Down-Regulation Test Group/Control Group: −1.96
  Bmp4 mRNA X axis (Log2(fold change)): −0.64
  Bmp6 mRNA Fold Change Test Group/Control Group: 0.44
  Bmp6 mRNA Fold Up- or Down-Regulation Test Group/Control Group: −2.27
  Bmp6 mRNA X axis (Log2(fold change)): −1.18
  Bmp7 mRNA Fold Change Test Group/Control Group: 0.70
  Bmp7 mRNA Fold Up- or Down-Regulation Test Group/Control Group: −1.43
  Bmp7 mRNA X axis (Log2(fold change)): −0.51
  Cc15 mRNA Fold Change Test Group/Control Group: 0.92
  Cc15 mRNA Fold Up- or Down-Regulation Test Group/Control Group: −1.09
  Cc15 mRNA X axis (Log2(fold change)): −0.13
  Cc120 mRNA Fold Change Test Group/Control Group: 0.42
  Cc120 mRNA Fold Up- or Down-Regulation Test Group/Control Group: −2.41
  Cc120 mRNA X axis (Log2(fold change)): −1.27
  Ccl1 mRNA Fold Change Test Group/Control Group: 0.63
  Ccl1 mRNA Fold Up- or Down-Regulation Test Group/Control Group: −1.58
  Ccl1 mRNA X axis (Log2(fold change)): −0.66
  Ccl2 mRNA Fold Change Test Group/Control Group: 1.35
  Ccl2 mRNA Fold Up- or Down-Regulation Test Group/Control Group: 1.35
  Ccl2 mRNA X axis (Log2(fold change)): 0.44
  Ccl3 mRNA Fold Change Test Group/Control Group: 1.06
  Ccl3 mRNA Fold Up- or Down-Regulation Test Group/Control Group: 1.06
  Ccl3 mRNA X axis (Log2(fold change)): 0.09
  Ccl4 mRNA Fold Change Test Group/Control Group: 0.72
  Ccl4 mRNA Fold Up- or Down-Regulation Test Group/Control Group: −1.39
  Ccl4 mRNA X axis (Log2(fold change)): −0.47
  Ccl7 mRNA Fold Change Test Group/Control Group: 1.03
  Ccl7 mRNA Fold Up- or Down-Regulation Test Group/Control Group: 1.03
  Ccl7 mRNA X axis (Log2(fold change)): 0.04
  Ccl11 mRNA Fold Change Test Group/Control Group: 1.03
  Ccl11 mRNA Fold Up- or Down-Regulation Test Group/Control Group: 1.03
  Ccl11 mRNA X axis (Log2(fold change)): 0.04
  Ccl12 mRNA Fold Change Test Group/Control Group: 4.11
  Ccl12 mRNA Fold Up- or Down-Regulation Test Group/Control Group: 4.11
  Ccl12 mRNA X axis (Log2(fold change)): 2.04
  Ccl17 mRNA Fold Change Test Group/Control Group: 0.68
  Ccl17 mRNA Fold Up- or Down-Regulation Test Group/Control Group: −1.47
  Ccl17 mRNA X axis (Log2(fold change)): −0.56
  Ccl19 mRNA Fold Change Test Group/Control Group: 0.54
  Ccl19 mRNA Fold Up- or Down-Regulation Test Group/Control Group: −1.86
  Ccl19 mRNA X axis (Log2(fold change)): −0.89
  Ccl22 mRNA Fold Change Test Group/Control Group: 0.31
  Ccl22 mRNA Fold Up- or Down-Regulation Test Group/Control Group: −3.18
  Ccl22 mRNA X axis (Log2(fold change)): −1.67
  Ccl24 mRNA Fold Change Test Group/Control Group: 1.21
  Ccl24 mRNA Fold Up- or Down-Regulation Test Group/Control Group: 1.21
  Ccl24 mRNA X axis (Log2(fold change)): 0.27
  Cd40lg mRNA Fold Change Test Group/Control Group: 0.52
  Cd40lg mRNA Fold Up- or Down-Regulation Test Group/Control Group: −1.91
  Cd40lg mRNA X axis (Log2(fold change)): −0.93
  Cd70 mRNA Fold Change Test Group/Control Group: 0.24
  Cd70 mRNA Fold Up- or Down-Regulation Test Group/Control Group: −4.19
  Cd70 mRNA X axis (Log2(fold change)): −2.07
  Cntf mRNA Fold Change Test Group/Control Group: 0.38
  Cntf mRNA Fold Up- or Down-Regulation Test Group/Control Group: −2.61
  Cntf mRNA X axis (Log2(fold change)): −1.39
  Csf1 mRNA Fold Change Test Group/Control Group: 1.02
  Csf1 mRNA Fold Up- or Down-Regulation Test Group/Control Group: 1.02
  Csf1 mRNA X axis (Log2(fold change)): 0.03
  Csf2 mRNA Fold Change Test Group/Control Group: 0.38
  Csf2 mRNA Fold Up- or Down-Regulation Test Group/Control Group: −2.64
  Csf2 mRNA X axis (Log2(fold change)): −1.40
  Csf3 mRNA Fold Change Test Group/Control Group: 0.50
  Csf3 mRNA Fold Up- or Down-Regulation Test Group/Control Group: −1.99
  Csf3 mRNA X axis (Log2(fold change)): −0.99
  Ctf1 mRNA Fold Change Test Group/Control Group: 0.19
  Ctf1 mRNA Fold Up- or Down-Regulation Test Group/Control Group: −5.18
  Ctf1 mRNA X axis (Log2(fold change)): −2.37
  Cx3cl1 mRNA Fold Change Test Group/Control Group: 0.53
  Cx3cl1 mRNA Fold Up- or Down-Regulation Test Group/Control Group: −1.89
  Cx3cl1 mRNA X axis (Log2(fold change)): −0.92
  Cxcl1 mRNA Fold Change Test Group/Control Group: 0.67
  Cxcl1 mRNA Fold Up- or Down-Regulation Test Group/Control Group: 1.49
  Cxcl1 mRNA X axis (Log2(fold change)): −0.57
  Cxcl3 mRNA Fold Change Test Group/Control Group: 0.87
  Cxcl3 mRNA Fold Up- or Down-Regulation Test Group/Control Group: −1.14
  Cxcl3 mRNA X axis (Log2(fold change)): −0.19
  Cxcl5 mRNA Fold Change Test Group/Control Group: 1.05
  Cxcl5 mRNA Fold Up- or Down-Regulation Test Group/Control Group: 1.05
  Cxcl5 mRNA X axis (Log2(fold change)): 0.07
  Cxcl9 mRNA Fold Change Test Group/Control Group: 1.64
  Cxcl9 mRNA Fold Up- or Down-Regulation Test Group/Control Group: 1.64
  Cxcl9 mRNA X axis (Log2(fold change)): 0.71
  Cxcl10 mRNA Fold Change Test Group/Control Group: 1.44
  Cxcl10 mRNA Fold Up- or Down-Regulation Test Group/Control Group: 1.44
  Cxcl10 mRNA X axis (Log2(fold change)): 0.53
  Cxcl11 mRNA Fold Change Test Group/Control Group: 0.45
  Cxcl11 mRNA Fold Up- or Down-Regulation Test Group/Control Group: −2.24
  Cxcl11 mRNA X axis (Log2(fold change)): −1.16
  Cxcl12 mRNA Fold Change Test Group/Control Group: 2.26
  Cxcl12 mRNA Fold Up- or Down-Regulation Test Group/Control Group: 2.26
  Cxcl12 mRNA X axis (Log2(fold change)): 1.17
  Cxcl13 mRNA Fold Change Test Group/Control Group: 0.39
  Cxcl13 mRNA Fold Up- or Down-Regulation Test Group/Control Group: −2.57
  Cxcl13 mRNA X axis (Log2(fold change)): −1.36
  Cxcl16 mRNA Fold Change Test Group/Control Group: 0.61
  Cxcl16 mRNA Fold Up- or Down-Regulation Test Group/Control Group: −1.65
  Cxcl16 mRNA X axis (Log2(fold change)): −0.72
  Fasl mRNA Fold Change Test Group/Control Group: 0.59
  Fasl mRNA Fold Up- or Down-Regulation Test Group/Control Group: −1.70
  Fasl mRNA X axis (Log2(fold change)): −0.77
  Gpi1 mRNA Fold Change Test Group/Control Group: 0.64
  Gpi1 mRNA Fold Up- or Down-Regulation Test Group/Control Group: −1.57
  Gpi1 mRNA X axis (Log2(fold change)): −0.65
  Hc mRNA Fold Change Test Group/Control Group: 1.77
  Hc mRNA Fold Up- or Down-Regulation Test Group/Control Group: 1.77
  Hc mRNA X axis (Log2(fold change)): 0.82
  Lif mRNA Fold Change Test Group/Control Group: 0.40
  Lif mRNA Fold Up- or Down-Regulation Test Group/Control Group: −2.48
  Lif mRNA X axis (Log2(fold change)): −1.31
  Lta mRNA Fold Change Test Group/Control Group: 0.34
  Lta mRNA Fold Up- or Down-Regulation Test Group/Control Group: −2.96
  Lta mRNA X axis (Log2(fold change)): −1.57
  Ltb mRNA Fold Change Test Group/Control Group: 0.63
  Ltb mRNA Fold Up- or Down-Regulation Test Group/Control Group: −1.58
  Ltb mRNA X axis (Log2(fold change)): −0.66
  Mif mRNA Fold Change Test Group/Control Group: 1.12
  Mif mRNA Fold Up- or Down-Regulation Test Group/Control Group: 1.12
  Mif mRNA X axis (Log2(fold change)): 0.17
  Mstn mRNA Fold Change Test Group/Control Group: 0.21
